# Data from patent publication US20060100177A1, “Stabilized ascorbic acid derivatives” (priority 2002, published 2006).
# Columns and labels:
# [1] = test system: human skin tissue three-dimensional model (TESTSKIN LSD-d); assay: amount of ascorbic acid in human skin tissue three-dimensional model after application of test solution; assay type: cell-based; settings: for amount of the ascorbic acid, 2 hours after culture / amount of the ascorbic acid, 6 hours after culture / amount of the ascorbic acid, 12 hours after culture: 40 μL test solution in Dulbecco PBS(−) applied 2 h (1) 2%; 2) and 3) 0.5%), removed; for amount of the ascorbic acid, 2 hours after culture: then cultured 2 hours; for amount of the ascorbic acid, 6 hours after culture: then cultured 6 hours; for amount of the ascorbic acid, 12 hours after culture: then cultured 12 hours; for concentration of ascorbic acid in the tissue (in words): administered to the skin model
# Description: To the surface of a human skin tissue three-dimensional model (trademark: TESTSKIN LSD-d, mfd. by Toyobo Co., Ltd.), 40 μL of a solution which had been obtained by dissolving each of the substances (1) to (3) to be tested in Dulbecco PBS (−), and the resultant skin tissue model was cultured at 37° C. in the presence of 5% CO2 for two hours. Then, the test solution was removed by aspiration, and thereafter the skin tissue model was cultured at 37° C. in the presence of 5% CO2 for 2, 6 and 12 hours, respectively.
# Each of the portions of the skin model which had been sampled at each culture time was washed with Dulbecco PBS (−), the surface portion was punched out by using a punch having a diameter of 6 mm φ, and homogenized in a HEPES buffer solution (pH 7.2) to obtain a homogenate. By use of the thus obtained homogenate, the amount of the ascorbic acid contained in the skin model was quantitatively analyzed by using a high performance liquid chromatography. The protein content in the skin model was quantitatively analyzed by using the Lowry method.
# Measurement Conditions for High Performance Liquid Chromatography
# [2] = stability test of aqueous solution, ratio of compound remaining after storage (HPLC); assay type: physicochemical; settings: 2 mass % in purified water, glass bottle, 40° C., light-shielding, 10 days
# Description: (under light-shielding condition) for 10 days. The ratio of the compound remaining after the storage was analyzed by using a high-performance liquid chromatograph equipped with Shodex (registered trademark of Showa Denko K.K.) SB802.5 HQ (mfd. by Showa Denko K.K.) column.
# (Measurement Conditions for High-Performance Liquid Chromatography)
# guinea pig incised wound = assay: collagen synthesis-accelerating effect in guinea pig model system having an incised wound; assay type: in vivo; settings: for Detachment tension / Hydroxyproline content: 0.2 ml test solution twice a day for four days (1) 2%; 2) and 3) 1%); for Detachment tension: incised wound on back; for Hydroxyproline content: skin section with incised wound, index of collagen; for effect on collagen synthesis and recovery of incised wound (in words): guinea pig incised wound
# Description: The collagen synthesis-accelerating effects of the following 1) to 3) test substances was compared with each other, by using a guinea pig model system having an incised (or cut) wound. The base material for dissolving each test substance was purified water containing 20% of ethanol, and 3% of propylene glycol. In this experiment, two incised wounds each having a length of 2 cm were formed on the back of a guinea pig by using a scalpel, so that the incised wounds are positioned symmetrically with regard to the center portion of the back. Then, 0.2 ml of the test substance solution was administered thereto twice a day, for four days. After the last administration was completed, a skin piece of 2 cm×2 cm (square shape) was surgically removed from the back of the guinea pig, so that the incised wound portions were positioned substantially at the center of the skin piece. Then, the tension required for the detachment of the incised wound surface was measured. Five guinea pigs were used with respect to one kind of the test substances. […] After the separation thereof by centrifugation, the resultant supernatant was freeze-dried. The protein content of the thus obtained skin sample was hydrolyzed with hydrochloric acid, and was subjected to amino acid analysis by use of AccQ.Tag Amino acid Analyzer (mfd. by Waters Co.). The results of the detachment tension measurement for the incised wound portion to which each test substance had been applied, and the hydroxyproline content thereof were as follows. Herein, the hydroxyproline is a substance which can be taken as an index of collagen.
Structure (SMILES),"amount of the ascorbic acid, 2 hours after culture [1] [nmol/mg skin protein]","amount of the ascorbic acid, 6 hours after culture [1] [nmol/mg skin protein]","amount of the ascorbic acid, 12 hours after culture [1] [nmol/mg skin protein]",concentration of ascorbic acid in the tissue (in words) [1],Residual Ratio (%) [2] [%],Detachment tension (guinea pig incised wound) [g/cm],Hydroxyproline content (guinea pig incised wound) [nmol/skin wet weight],effect on collagen synthesis and recovery of incised wound (in words) (guinea pig incised wound)
"CCCCCCCCCC(CCCCCCC)C(=O)OC[C@H](O)[C@H]1OC(=O)C(OP(=O)(O)O)=C1O.[Na] (stereo partly drawn) [Example A-2, L-Ascorbic Acid-2-Phosphoric Acid-6-(2′-n-Heptylundecanoate) sodium salt]",5,11,26,concentration of the ascorbic acid in the tissue could easily be enhanced effectively,95.5,187,37.6,had an effect of accelerating the collagen synthesis
"CCCCCCCCCCCCCCCC(=O)OC[C@H](O)[C@H]1OC(=O)C(OP(=O)(O)O)=C1O.[Na] [Comparative Example A-1, L-ascorbic acid-2-phosphoric acid-6-palmitatic acid ester sodium salt, reference compound]",,,,,88.6,,,
"O=C1O[C@H]([C@@H](O)CO)C(O)=C1OP(=O)([O-])[O-].[Na+].[Na+] [Comparative Example A-2, L-ascorbic acid-2-phosphate sodium salt, reference compound]",,,,,96.9,123,32.1,
"CCCCCCCCC(CCCCCC)C(=O)OC[C@H](O)[C@H]1OC(=O)C(OP(=O)(O)O)=C1O.[Na] (stereo partly drawn) [Example A-1, L-Ascorbic acid-2-phosphoric acid-6-(2′-hexyldecanoate) sodium salt]",6,10,23,concentration of the ascorbic acid in the tissue could easily be enhanced effectively,95.3,181,38.5,had an effect of accelerating the collagen synthesis
